Experimental data taken from US20230120142A1, “COMPOSITIONS AND METHODS FOR THE TREATMENT OF INTRACELLULAR BACTERIAL INFECTIONS” (Endolytix Technology, Inc., priority 2020, published 2023).

Tested on: M. abscessus cells
Assay: Cell growth assay of ABIα plus antibiotic, Fractional Inhibitory Concentration (FIC) index
Type: cell-based, Mycobacterium abscessus
Conditions: antibiotic in combination with ABIα cocktail; FIG. 5

Row | Compound | interaction by Fractional Inhibitory Concentration (FIC) index on attenuation of M. abscessus growth
1 | NCC[C@H](O)C(=O)N[C@@H]1C[C@H](N)[C@@H](O[C@H]2O[C@H](CN)[C@@H](O)[C@H](O)[C@H]2O)[C@H](O)[C@H]1O[C@H]1O[C@H](CO)[C@@H](O)[C@H](N)[C@H]1O [amikacin] | synergistic effects
2 | C[C@@H](O)[C@H]1C(=O)N2C(C(=O)[O-])=C(SC3Cn4cnc[n+]4C3)[C@H](C)[C@H]12 (stereo partly drawn) [biapenem] | synergistic effects
3 | CO[C@@]1(NC(=O)Cc2cccs2)C(=O)N2C(C(=O)O)=C(COC(N)=O)CS[C@@H]21 [cefoxitin] | synergistic effects
